Test results: patent US4277479A, “Tetrazolylalkoxycarbostyril derivatives and pharmaceutical compositions containing them” (Otsuka Pharmaceutical Co., Ltd., priority 1978, dated 1981)

Experiments:
[1] = system: Gold blatt type renoprival hypertension rats (RHR); test: Hypo-tensive effect, Gold blatt type renoprival hypertension rats (RHR), tail-cuff method; assay type: in vivo, rat; conditions: 30 mg/kg oral, mean ± standard deviation
Protocol: Hypo-tensive effect of the compounds was measured by determining the maximum blood pressure of the test animals according to a procedure of Tail-cuff method.
The following types of test animals were used:
(1) Gold blatt type renoprival hypertension rats (RHR)
Wistar strain male rats having 160-180 g of body weight were anesthetized with ether and the left-side renal artery was plugged with a silver clip having 0.2 mm inside diameter, while the right-side renal artery was kept as it was without operation. Four (4) weeks after the operation, rats having the maximum blood pressure over 150 mmHg were selected and used as test animals after having been denied food overnight.
Each of compounds to be tested was administered orally and the blood pressure of the rats was measured before the administration and 1, 2, 4, 6 and 8 hours after the administration. The blood pressure was measured by using Recorder (Rectihoriz type 8S, San-ei Instrument) and Electrosthygmomanometer PE-300 (Macro Bio-systems, Houston, Tex.).

[2] = Acute toxicity test; conditions: mouse, in vivo; male mice, oral administration
Protocol: The test compounds were administered orally to the mice and LD50 (mg/kg) of the compounds was determined.

[3] = system: rabbit platelet (ADP-induced aggregation); test: Platelet aggregation inhibitory effect, ADP-induced aggregation in rabbit platelet; assay type: cell-based; conditions: Oryctolagus cuniculus; for inhibition at 100 µM: concentration of the test compound solution 10^-4 mole; for inhibition at 100 µM / inhibition at 10 µM: read-out: Inhibition effect on ADP-induced aggregation in rabbit platelet; for inhibition at 10 µM: concentration of the test compound solution 10^-5 mole; for inhibition at 1 µM: concentration of the test compound solution 10^-6 mole
From the text: The blood sample used for the test is a 1/9 (by volume) mixture of sodium citrate and whole blood collected from rabbit. Said sample is subjected to 10-minute centrifugal separation at 1,000 r.p.m. to obtain a platelet rich plasma (PRP). The thus obtained PRP is separated, and the remaining blood sample is further subjected to 15-minute centrifugal separation at 3,000 r.p.m. to obtain a platelet poor plasma (PPP).
The number of platelets in the PRP is counted by the Brecher-Clonkite Method, and the PRP is diluted with the PPP to prepare a PRP sample with platelet concentration of 300,000/mm^3 for the adenosine diphosphate (ADP)-induced aggregation test. There is also prepared a PRP sample with platelet concentration of 450,000/mm^3 for the collagen-induced aggregation test.
0.6 Ml of said PRP sample is added into 0.01 ml of a solution of a test compound of a predetermined concentration and the mixture is placed in a 37° C. thermostat for one minute. Then 0.07 ml of an ADP or collagen solution is added to the mixture. Transmittance of this mixture is determined and the change of transmittance is recorded by using the aggregometer at stirrer speed of 1,100 r.p.m. […] ADP is adjusted to a concentration of 7.5×10^-5 M, and the collagen solution is prepared by triturating 100 mg of collagen with 5 ml of said buffer and the supernatant is used as collagen inducer. Adenosine and acetylsalicylic acid are used as controls for the ADP-induced aggregation test and the collagen-induced aggregation test, respectively. The platelet aggregation inhibitory effect is measured in terms of percent inhibition with respect to the aggregation rate of the controls. The aggregation rate is calculated from the following formula: [formula] wherein a: transmittance of PRP
b: transmittance of PRP containing a test compound and an aggregation inducer
The compounds tested are as follows.

SMILES | Maximum blood pressure, difference after the administration ([1]; 1 hour) [mmHg] | Maximum blood pressure, difference after the administration ([1]; 2 hours) [mmHg] | Maximum blood pressure, difference after the administration ([1]; 4 hours) [mmHg] | Maximum blood pressure, difference after the administration ([1]; 6 hours) [mmHg] | Maximum blood pressure, difference after the administration ([1]; 8 hours) [mmHg] | LD50 [2] [mg/kg] | inhibition at 100 µM [3] [%] | inhibition at 10 µM [3] [%] | inhibition at 1 µM [3] [%]
O=c1ccc2cc(OCCCc3nnnn3C3CCCCCCC3)ccc2[nH]1 [Compound 6, 6-[3-(1-Cyclooctyltetrazol-5-yl)propoxy]carbostyril] | -8.5 ± 4.3 | -10.7 ± 7.6 | -40.8 ± 9.9 | -35.4 ± 9.5 | -28.4 ± 7.7 | > 1000 | 100 | 75.5 | 30.5
O=c1ccc2cc(OCCCCc3nnnn3C3CCCCC3)ccc2[nH]1 [Compound 7, 6-[4-(1-Cyclohexyltetrazol-5-yl)butoxy]carbostyril] | -9.5 ± 10.4 | -12.6 ± 8.9 | -34.9 ± 19.8 | -30.4 ± 8.6 | -19.7 ± 8.4 | > 1000 | 100 | 59.9 | 28.7
O=c1ccc2cc(OCCCc3nnnn3C3CCCCC3)ccc2[nH]1 [Compound 1, 6-[3-(1-Cyclohexyltetrazol-5-yl)propoxy]carbostyril] | -3.3 ± 5.2 | -9.9 ± 6.7 | -36.7 ± 9.7 | -33.4 ± 8.6 | -31.3 ± 8.8 | > 1000 | 100 | 63.4 | 32.7
O=c1ccc2cc(OCCCc3nnnn3CC3CCCCC3)ccc2[nH]1 [Compound 5, 6-[3-(1-Cyclohexylmethyltetrazol-5-yl)propoxy]carbostyril] | -30.2 ± 8.2 | -21.2 ± 5.7 | -21.7 ± 7.5 | -24.7 ± 10.4 | – | > 1000 | 100 | 64.1 | 34.2
